Values quoted from earlier work, collected in patent US20080255186A1, “Pyrazolo[3,4-B]Pyridine Compound, and Its Use as a Pde4 Inhibitor” (priority 2005, published 2008).

What was measured:
[1] = tested on: atopic dermatitis patients; settings: 0.5% ointment, twice daily topical application; cited from earlier work
[2] = tested on: atopic dermatitis patients; settings: 0.15% cream vs vehicle and hydrocortisone 17-butyrate (0.1%) cream; cited from earlier work
[3] = tested on: humans with histories of allergic rhinitis; settings: orally 500 ug once daily for 9 days, compared to placebo; cited from earlier work
COPD patients = settings: cited from earlier work

COc1ccc(C2CNC(=O)NC2)cc1O[C@H]1C[C@@H]2CC[C@H]1C2 [CP80,633]
Effect on inflammatory parameters in atopic dermatitis patients [1]: reductions of inflammatory parameters

Nc1nc2c([nH]1)c(=O)n(CC1CC1)c(=O)n2CC1CC1 [cipamfylline]
Efficacy in treatment of atopic dermatitis patients [2]: significantly more effective than vehicle, but significantly less effective than hydrocortisone 17-butyrate (0.1%) cream

O=C(Nc1c(Cl)cncc1Cl)c1ccc(OC(F)F)c(OCC2CC2)c1 [roflumilast]
Effect on rhinal airflow [3]: effective in improving rhinal airflow

COc1ccc([C@]2(C#N)CC[C@@H](C(=O)O)CC2)cc1OC1CCCC1 [cilomilast]
Effect on forced expiratory volume (FEV1) in COPD patients (COPD patients; cilomilast: 15 mg orally twice daily): appears to improve forced expiratory volume
Antiinflammatory effects in COPD patients (COPD patients; human, in vivo): appears to have antiinflammatory effects in COPD patients
